Measured values as given in US12448395B2 (BRISTOL-MYERS SQUIBB COMPANY, priority 2019, dated 2025).

Biological target: T1, human TLR9 (Homo sapiens, UniProt Q9NR96)
T1 sequence (Q9NR96 26-1032): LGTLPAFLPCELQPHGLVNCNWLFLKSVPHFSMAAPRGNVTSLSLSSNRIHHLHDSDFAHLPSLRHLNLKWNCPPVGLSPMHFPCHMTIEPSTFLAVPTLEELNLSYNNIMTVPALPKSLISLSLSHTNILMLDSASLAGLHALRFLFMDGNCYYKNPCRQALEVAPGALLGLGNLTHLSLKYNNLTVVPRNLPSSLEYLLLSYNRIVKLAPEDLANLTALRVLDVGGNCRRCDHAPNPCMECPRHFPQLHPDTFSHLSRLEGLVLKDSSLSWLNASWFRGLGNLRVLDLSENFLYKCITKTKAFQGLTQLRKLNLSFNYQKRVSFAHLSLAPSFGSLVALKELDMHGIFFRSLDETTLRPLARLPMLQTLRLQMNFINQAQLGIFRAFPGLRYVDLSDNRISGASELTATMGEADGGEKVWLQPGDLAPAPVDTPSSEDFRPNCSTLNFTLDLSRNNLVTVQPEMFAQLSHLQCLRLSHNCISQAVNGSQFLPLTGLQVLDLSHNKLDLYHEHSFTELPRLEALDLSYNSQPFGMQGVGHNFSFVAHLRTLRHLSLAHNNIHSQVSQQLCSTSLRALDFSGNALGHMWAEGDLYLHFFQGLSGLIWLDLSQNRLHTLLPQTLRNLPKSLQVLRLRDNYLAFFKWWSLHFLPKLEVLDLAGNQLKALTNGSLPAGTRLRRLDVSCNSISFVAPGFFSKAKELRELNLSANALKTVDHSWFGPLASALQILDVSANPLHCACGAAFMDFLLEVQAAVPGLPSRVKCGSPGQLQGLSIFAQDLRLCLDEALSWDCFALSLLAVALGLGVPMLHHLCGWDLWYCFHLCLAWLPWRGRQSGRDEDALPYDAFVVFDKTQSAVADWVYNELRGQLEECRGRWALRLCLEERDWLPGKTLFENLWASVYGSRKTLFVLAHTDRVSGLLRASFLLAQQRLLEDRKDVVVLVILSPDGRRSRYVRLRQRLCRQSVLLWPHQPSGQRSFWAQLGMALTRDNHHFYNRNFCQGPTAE
Assay: TLR9 inhibition reporter assay (HEK-Blue SEAP, ODN2006 stimulation)
Type: cell-based
Settings: HEK-Blue cells overexpressing human TLR9, ODN2006 5 nM
Experimental: TLR7/8/9 Inhibition Reporter Assays
HEK-Blue™-cells (Invivogen) overexpressing human TLR7, TLR8 or TLR9 receptors were used for screening inhibitors of these receptors using an inducible SEAP (secreted embryonic alkaline phosphatase) reporter gene under the control of the IFN-β minimal promoter fused to five NF-κB and AP-1-binding sites. Briefly, cells are seeded into Greiner 384 well plates (15000 cells per well for TLR7, 20,000 for TLR8 and 25,000 for TLR9) and then treated with test compounds in DMSO to yield a final dose response concentration range of 0.05 nM-50 μM. After a 30 minute compound pre-treatment at room temperature, the cells are then stimulated with a TLR7 ligand (gardiquimod at a final concentration of 7.5 μM), TLR8 ligand (R848 at a final concentration of 15.9 μM) or TLR9 ligand (ODN2006 at a final concentration of 5 nM) to activate NF-κB and AP-1 which induce the production of SEAP. After a 22 hour incubation at 37° C., 5% CO2, SEAP levels are determined with the addition of HEK-Blue™ Detection reagent (Invivogen), a cell culture medium that allows for detection of SEAP, according to manufacturer's specifications. The percent inhibition is determined as the % reduction in the HEK-Blue signal present in wells treated with agonist plus DMSO alone compared to wells treated with a known inhibitor.

Row | IC50 [µM] | SMILES
1 | > 50 | Cc1c(-c2[nH]c3sc(C(=O)N4CCCC4)nc3c2C(C)C)cn2ncnc2c1C [Example 377, (5-(7,8-dimethyl-[1,2,4]triazolo[1,5-a]pyridin-6-yl)-6-isopropyl-4H-pyrrolo[3,2-d]thiazol-2-yl)(pyrrolidin-1-yl)methanone]
2 | > 50 | Cc1cc(-c2[nH]c3sc(C(=O)N4CCOCC4)nc3c2C(C)C)cn2ncnc12 [Example 398, (6-isopropyl-5-(8-methyl-[1,2,4]triazolo[1,5-a]pyridin-6-yl)-4H-pyrrolo[3,2-d]thiazol-2-yl)(morpholino)methanone]
3 | > 50 | CNC(=O)CN1CCN(c2nc3c(C(C)C)c(-c4cn5ncnc5c(C)c4C)[nH]c3s2)[C@@H](C)C1 [Example 342, (S)-2-(4-(5-(7,8-dimethyl-[1,2,4]triazolo[1,5-a]pyridin-6-yl)-6-isopropyl-4H-pyrrolo[3,2-d]thiazol-2-yl)-3-methylpiperazin-1-yl)-N-methylacetamide]
4 | > 50 | CC(C)c1c(-c2cn(C)c3ncccc23)[nH]c2sc(C3CCN(C(=O)CN(C)C)CC3)nc12 [Example 32, 2-(dimethylamino)-1-(4-(6-isopropyl-5-(1-methyl-1H-pyrrolo[2,3-b]pyridin-3-yl)-4H-pyrrolo[3,2-d]thiazol-2-yl)piperidin-1-yl)ethan-1-one]
5 | > 50 | Cc1c(-c2[nH]c3sc(N4CC5(CN(CCS(C)(=O)=O)C5)C4)nc3c2C(C)C)cn(C)c(=O)c1C [Example 305, 5-(6-isopropyl-2-(6-(2-(methylsulfonyl)ethyl)-2,6-diazaspiro[3.3]heptan-2-yl)-4H-pyrrolo[3,2-d]thiazol-5-yl)-1,3,4-trimethylpyridin-2 (1H)-one]
6 | > 50 | Cc1c(-c2[nH]c3sc(N4CCN(CC(N)=O)C[C@H]4C)nc3c2C(C)C)cn2ncnc2c1C [Example 313, (R)-2-(4-(5-(7,8-dimethyl-[1,2,4]triazolo[1,5-a]pyridin-6-yl)-6-isopropyl-4H-pyrrolo[3,2-d]thiazol-2-yl)-3-methylpiperazin-1-yl)acetamide]
7 | > 50 | Cc1c(-c2[nH]c3sc(CN4CCOCC4)nc3c2C(C)C)cn2ncnc2c1C [Example 407, 4-((5-(7,8-dimethyl-[1,2,4]triazolo[1,5-a]pyridin-6-yl)-6-isopropyl-4H-pyrrolo[3,2-d]thiazol-2-yl)methyl)morpholine]
8 | > 50 | Cc1cc(-c2[nH]c3sc(C(=O)N4CCNC(=O)C4)nc3c2C(C)C)cn2ncnc12 [Example 392, 4-(6-isopropyl-5-(8-methyl-[1,2,4]triazolo[1,5-a]pyridin-6-yl)-4H-pyrrolo[3,2-d]thiazole-2-carbonyl)piperazin-2-one]
9 | > 50 | Cc1c(-c2[nH]c3sc(CN4CCNC(=O)C4)nc3c2C(C)C)cn2ncnc2c1C [Example 406, 4-((5-(7,8-dimethyl-[1,2,4]triazolo[1,5-a]pyridin-6-yl)-6-isopropyl-4H-pyrrolo[3,2-d]thiazol-2-yl)methyl) piperazin-2-one]
10 | > 50 | Cc1c(-c2[nH]c3sc(N4CCN(CCS(C)(=O)=O)C[C@@H]4C)nc3c2C(C)C)cn2ncnc2c1C [Example 344, (S)-5-(7,8-dimethyl-[1,2,4]triazolo[1,5-a]pyridin-6-yl)-6-isopropyl-2-(2-methyl-4-(2-(methylsulfonyl)ethyl)piperazin-1-yl)-4H-pyrrolo[3,2-d]thiazole]
11 | > 50 | Cc1cc(-c2[nH]c3sc(C(=O)NC4COC4)nc3c2C(C)C)cn2ncnc12 [Example 397, 6-isopropyl-5-(8-methyl-[1,2,4]triazolo[1,5-a]pyridin-6-yl)-N-(oxetan-3-yl)-4H-pyrrolo[3,2-d]thiazole-2-carboxamide]
12 | > 50 | Cc1c(-c2[nH]c3sc(C(N)=O)nc3c2C(C)C)cn2ncnc2c1C [Example 385, 5-(7,8-dimethyl-[1,2,4]triazolo[1,5-a]pyridin-6-yl)-6-isopropyl-4H-pyrrolo[3,2-d]thiazole-2-carboxamide]
13 | > 50 | Cc1c(-c2[nH]c3sc(C4CCN(CCS(C)(=O)=O)CC4)nc3c2C(C)C)cn2ncnc2c1C [Example 55, 5-(7,8-dimethyl-[1,2,4]triazolo[1,5-a]pyridin-6-yl)-6-isopropyl-2-(1-(2-(methylsulfonyl)ethyl)piperidin-4-yl)-4H-pyrrolo[3,2-d]thiazole]
14 | > 50 | CNC(=O)CN1CCC(c2nc3c(C(C)C)c(-c4cn(C)c(=O)c(C)c4C)[nH]c3s2)CC1 [Example 63, 2-(4-(6-isopropyl-5-(1,4,5-trimethyl-6-oxo-1,6-dihydropyridin-3-yl)-4H-pyrrolo[3,2-d]thiazol-2-yl)piperidin-1-yl)-N-methylacetamide]
15 | > 50 | Cc1c(-c2[nH]c3sc(N4CCN(CC(C)(C)O)C[C@@H]4C)nc3c2C(C)C)cn2ncnc2c1C [Example 345, (S)-1-(4-(5-(7,8-dimethyl-[1,2,4]triazolo[1,5-a]pyridin-6-yl)-6-isopropyl-4H-pyrrolo[3,2-d]thiazol-2-yl)-3-methylpiperazin-1-yl)-2-methylpropan-2-ol]
16 | > 50 | CNC(=O)CN1CCN(c2nc3c(C(C)C)c(-c4cn5ncnc5c(C)c4C)[nH]c3s2)[C@H](C)C1 [Example 315, (R)-2-(4-(5-(7,8-dimethyl-[1,2,4]triazolo[1,5-a]pyridin-6-yl)-6-isopropyl-4H-pyrrolo[3,2-d]thiazol-2-yl)-3-methylpiperazin-1-yl)-N-methylacetamide]
17 | > 50 | Cc1c(-c2[nH]c3sc(N4CC5(C4)CN(C4COC4)C5)nc3c2C(C)C)cn2ncnc2c1C [Example 302, 5-(7,8-dimethyl-[1,2,4]triazolo[1,5-a]pyridin-6-yl)-6-isopropyl-2-(6-(oxetan-3-yl)-2,6-diazaspiro[3.3]heptan-2-yl)-4H-pyrrolo[3,2-d]thiazole]
18 | > 50 | CC(C)c1c(-c2cn(C)c3ncccc23)[nH]c2sc(C3CCN(CCS(C)(=O)=O)CC3)nc12 [Example 33, 6-isopropyl-5-(1-methyl-1H-pyrrolo[2,3-b]pyridin-3-yl)-2-(1-(2-(methylsulfonyl)ethyl)piperidin-4-yl)-4H-pyrrolo[3,2-d]thiazole]
19 | > 50 | Cc1c(-c2[nH]c3sc(N4CCN(CCS(C)(=O)=O)C[C@H]4C)nc3c2C(C)C)cn2ncnc2c1C [Example 314, (R)-5-(7,8-dimethyl-[1,2,4]triazolo[1,5-a]pyridin-6-yl)-6-isopropyl-2-(2-methyl-4-(2-(methylsulfonyl)ethyl)piperazin-1-yl)-4H-pyrrolo[3,2-d]thiazole]
20 | > 50 | CC(C)c1c(-c2cn(C)c3ncccc23)[nH]c2sc(C3CCN(CC(N)=O)CC3)nc12 [Example 31, 2-(4-(6-isopropyl-5-(1-methyl-1H-pyrrolo[2,3-b]pyridin-3-yl)-4H-pyrrolo[3,2-d]thiazol-2-yl)piperidin-1-yl) acetamide]
21 | > 50 | Cc1c(-c2[nH]c3sc(CN4CC5(CCOCC5)C4)nc3c2C(C)C)cn2ncnc2c1C [Example 404, 2-((5-(7,8-dimethyl-[1,2,4]triazolo[1,5-a]pyridin-6-yl)-6-isopropyl-4H-pyrrolo[3,2-d]thiazol-2-yl)methyl)-7-oxa-2-azaspiro[3.5]nonane]
22 | > 50 | Cc1c(-c2[nH]c3sc(C4CCN(CC(N)=O)CC4)nc3c2C(C)C)cn(C)c(=O)c1C [Example 64, 2-(4-(6-isopropyl-5-(1,4,5-trimethyl-6-oxo-1,6-dihydropyridin-3-yl)-4H-pyrrolo[3,2-d]thiazol-2-yl)piperidin-1-yl)acetamide]
23 | > 50 | CC(=O)N1CCC(c2nc3c(C(C)C)c(-c4cn5ncnc5c(C)c4C)[nH]c3s2)CC1 [Example 59, 1-(4-(5-(7,8-dimethyl-[1,2,4]triazolo[1,5-a]pyridin-6-yl)-6-isopropyl-4H-pyrrolo[3,2-d]thiazol-2-yl)piperidin-1-yl)ethan-1-one]
